These results are taken from patent US20110165277A1, “Biological Materials and Uses Thereof” (priority 2008, published 2011).

The nature of the assay: Further sandalwood analogues: volatile fatty acid and methane production (Example 7, Table 14). It counts as cell-based. The procedure: Further testing of sandalwood analogues was conducted following the protocols described in Examples 3 and 5.

Consider `CCC(=CCC1CC=C(C)C1(C)C)CO` (centres unmarked) [Bacdanol, 2-ethyl-4-(2,2,3-trimethyl-3-cyclopenten-1-yl)-2-buten-1-ol], for which, for the setting “5 μg/ml”, the Acetate was 2037 μmol/g of feed added, the Butyrate is 438 μmol/g of feed added, the Methane is given as 934 μmol/g of feed added and the Propionate is 444 μmol/g of feed added. Further, the TVFA (5 μg/ml) was 2919 μmol/g of feed added. Moreover, for the setting “50 μg/ml”, the Acetate is 2049 μmol/g of feed added, the Butyrate is listed as 458 μmol/g of feed added, the Methane is listed as 1047 μmol/g of feed added and the Propionate is given as 434 μmol/g of feed added. In addition, the TVFA (50 μg/ml) was 2942 μmol/g of feed added. Also, under “100 μg/ml”, the Acetate is 2419 μmol/g of feed added, the Butyrate is 514 μmol/g of feed added, the Methane was 995 μmol/g of feed added and the Propionate is listed as 515 μmol/g of feed added. Further, the TVFA (100 μg/ml) was 3448 μmol/g of feed added. In addition, under “500 μg/ml”, the Acetate is reported as 2331 μmol/g of feed added, the Butyrate was 309 μmol/g of feed added, the Methane was 942 μmol/g of feed added and the Propionate is given as 864 μmol/g of feed added. Also, where the note is “500 μg/ml”, the TVFA is given as 3503 μmol/g of feed added.
In the case of `CC1=CCC(C=CC(C)C(C)O)C1(C)C` (centres unmarked) [Ebanol, 3-Methyl-5-(2,2,3-trimethyl-3-cyclopenten-1-yl)-4-penten-2-ol], under “5 μg/ml”, the Acetate is reported as 2136 μmol/g of feed added, the Butyrate is on record as 488 μmol/g of feed added, the Methane is on record as 952 μmol/g of feed added and the Propionate is 427 μmol/g of feed added. In addition, where the note is “5 μg/ml”, the TVFA is recorded as 3051 μmol/g of feed added. For the same compound, for the setting “50 μg/ml”, the Acetate is listed as 2129 μmol/g of feed added, the Butyrate is reported as 474 μmol/g of feed added, the Methane is 934 μmol/g of feed added and the Propionate is recorded as 436 μmol/g of feed added. The TVFA (50 μg/ml) is 3039 μmol/g of feed added. For the same compound, where the note is “100 μg/ml”, the Acetate is on record as 2430 μmol/g of feed added, the Butyrate was 458 μmol/g of feed added, the Methane is listed as 833 μmol/g of feed added and the Propionate is 533 μmol/g of feed added. Further, the TVFA (100 μg/ml) is reported as 3421 μmol/g of feed added. Besides, where the note is “500 μg/ml”, the Acetate was 2333 μmol/g of feed added, the Butyrate is 332 μmol/g of feed added, the Methane is reported as 683 μmol/g of feed added and the Propionate was 939 μmol/g of feed added. In addition, the TVFA (500 μg/ml) was 3604 μmol/g of feed added.
Regarding `CC1=CCC(CCC(C)C(C)O)C1(C)C` (centres unmarked) [Sandalore, 5-(2,2,3-Trimethyl-3-cyclopentenhyl)-3-methylpentan-2-ol], under “5 μg/ml”, the Acetate is on record as 2118 μmol/g of feed added, the Butyrate is 487 μmol/g of feed added, the Methane is reported as 951 μmol/g of feed added and the Propionate was 431 μmol/g of feed added. Further, the TVFA (5 μg/ml) was 3036 μmol/g of feed added. Besides, where the note is “50 μg/ml”, the Acetate is reported as 1972 μmol/g of feed added, the Butyrate was 453 μmol/g of feed added, the Methane is 1086 μmol/g of feed added and the Propionate is 409 μmol/g of feed added. The TVFA (50 μg/ml) was 2834 μmol/g of feed added. Under “100 μg/ml”, the Acetate was 2119 μmol/g of feed added, the Butyrate is reported as 432 μmol/g of feed added, the Methane was 1174 μmol/g of feed added and the Propionate was 471 μmol/g of feed added. In addition, the TVFA (100 μg/ml) is 3023 μmol/g of feed added. Under “500 μg/ml”, the Acetate is 2249 μmol/g of feed added, the Butyrate was 305 μmol/g of feed added, the Methane was 902 μmol/g of feed added and the Propionate is recorded as 897 μmol/g of feed added. The TVFA (500 μg/ml) is on record as 3451 μmol/g of feed added.
In the case of `CC1C2CC(CC2C2CCC(O)CC2)C1(C)C` (centres unmarked) [Sandela, 4-(5,5,6-Trimethylbicyclo[2.2.1]hept-2-yl)cyclohexan-1-ol], for the setting “5 μg/ml”, the Acetate was 2223 μmol/g of feed added, the Butyrate was 482 μmol/g of feed added, the Methane is on record as 996 μmol/g of feed added and the Propionate was 465 μmol/g of feed added. For the same compound, for the setting “5 μg/ml”, the TVFA is reported as 3169 μmol/g of feed added. Moreover, under “50 μg/ml”, the Acetate was 2235 μmol/g of feed added, the Butyrate is 513 μmol/g of feed added, the Methane is reported as 1052 μmol/g of feed added and the Propionate is reported as 450 μmol/g of feed added. Besides, the TVFA (50 μg/ml) is 3198 μmol/g of feed added. In addition, under “100 μg/ml”, the Acetate is on record as 2297 μmol/g of feed added, the Butyrate is given as 515 μmol/g of feed added, the Methane is reported as 1078 μmol/g of feed added and the Propionate is given as 477 μmol/g of feed added. For the same compound, where the note is “100 μg/ml”, the TVFA is 3289 μmol/g of feed added. In addition, where the note is “500 μg/ml”, the Acetate is recorded as 2270 μmol/g of feed added, the Butyrate is recorded as 317 μmol/g of feed added, the Methane was 928 μmol/g of feed added and the Propionate is listed as 680 μmol/g of feed added. Moreover, the TVFA (500 μg/ml) was 3267 μmol/g of feed added.
